Data reported in US20070082883A1, “HIV protease inhibitors” (THE BOARD OF TRUSTEES OF THE UNIVERSITY OF ILLINOIS, priority 2002, published 2007).

Molecular target: T1, HIV-1 protease (Human immunodeficiency virus type 1 group M subtype B, UniProt P04585)
T1 construct: made in house; host or cells: E. coli BL21 (dE3)pLysS, pET30a vector
Experiment: HIV-1 Protease Inhibition Assay
Type: biochemical
Text: Assays of the dose-response effect of inhibitor compounds can be described as a curve expressing a degree of inhibition as a function of concentration. The curve theoretically passes through a point at which the concentration is sufficient to reduce activity of the HIV protease enzyme to a level that is 50% that of the difference between minimal and maximal enzyme activity in the assay.
HIV-1 Protease Inhibition Assay
The HIV-1 protease gene was subcloned into the pET30a vector (Novagen) and then transformed into BL21 (dE3)pLysS cells for protein expression. Protein expression and purification were followed according to Tang's procedure (Hong et al., Biochemistry, 1996, 35, 10627-10633). […] The inclusion body containing some bacterial proteins was thoroughly washed by using TRITON X-100, solubilized in […] and passed through the Q-sepharose column to remove the bacterial proteins which interfered with subsequent refolding steps. HIV-1 protease was refolded from the urea to an active form by dialysis. As a final step, gel filtration chromatography was used to remove impurities after refolding. Activities of purified HIV-1 protease were examined using a fluorogenic substrate, 2-aminobenzoyl-Thr-Ile-Nle-Phe(pNO2)-Gln-Arg-NH2 (Novabiochem). […] In the condition of So<<Km, v=Eo(kcat/Km)So, where Eo is the total enzyme concentration, and So is the substrate concentrate. […] Assays are carried out as described by Toth and Marshall (Toth et al., Int. J. Pept. Protein Res., 1990, 36, 544-50).

[1] = cells marked (pM) in a column headed nM

C=CCCCCN(C[C@@H](O)[C@H](Cc1ccccc1)NC(=O)O[C@H]1CO[C@H]2OCCC21)S(=O)(=O)c1cccc(OCCCC=C)c1 (stereo partly drawn) [Compound 225]
IC50 (fluorogenic substrate assay): 8100 pM | Ki (fluorogenic substrate assay): 2.5 nM

O=C(N[C@@H](Cc1ccccc1)[C@H](O)CN1CCCC/C=C/CCCOc2cccc(c2)S1(=O)=O)O[C@H]1CO[C@H]2OCCC21 (stereo partly drawn) [Compound 225a]
IC50 (fluorogenic substrate assay): 7800 pM | Ki (fluorogenic substrate assay): 2.4 nM

O=C(N[C@@H](Cc1ccccc1)[C@H](O)CN1CCCCCCCCCOc2cccc(c2)S1(=O)=O)O[C@H]1CO[C@H]2OCCC21 (stereo partly drawn) [Compound 225b]
IC50 (fluorogenic substrate assay): 7800 pM | Ki (fluorogenic substrate assay): 2.4 nM

C=CCCCCOc1cccc(S(=O)(=O)N(CCCCC=C)C[C@@H](O)[C@H](Cc2ccccc2)NC(=O)O[C@H]2CO[C@H]3OCCC32)c1 (stereo partly drawn) [Compound 225c]
IC50 (fluorogenic substrate assay): 8500 pM | Ki (fluorogenic substrate assay): 2.6 nM

C=CCCCCN(C[C@@H](O)[C@H](Cc1ccccc1)NC(=O)O[C@@H]1CC2CCO[C@@H]2C1)S(=O)(=O)c1cccc(OCC=C)c1 (stereo partly drawn) [Compound 225f]
IC50 (fluorogenic substrate assay): 11000 pM | Ki (fluorogenic substrate assay): 3.4 nM

O=C(N[C@@H](Cc1ccccc1)[C@H](O)CN1CCCC/C=C\COc2cccc(c2)S1(=O)=O)O[C@@H]1CC2CCO[C@@H]2C1 (stereo partly drawn) [Compound 225g]
IC50 (fluorogenic substrate assay): 10000 pM | Ki (fluorogenic substrate assay): 3.1 nM

O=C(N[C@@H](Cc1ccccc1)[C@H](O)CN1CCCCCCCOc2cccc(c2)S1(=O)=O)O[C@@H]1CC2CCO[C@@H]2C1 (stereo partly drawn) [Compound 225h]
IC50 (fluorogenic substrate assay): 6800 pM | Ki (fluorogenic substrate assay): 2.1 nM

C=CCCCCOc1cccc(S(=O)(=O)N(CCCCC=C)C[C@@H](O)[C@H](Cc2ccccc2)NC(=O)O[C@@H]2CC3CCO[C@@H]3C2)c1 (stereo partly drawn) [Compound 225i]
IC50 (fluorogenic substrate assay): 17000 pM | Ki (fluorogenic substrate assay): 5.3 nM

C=CCCCCOc1ccccc1COC(=O)N(CCCC=C)C[C@@H](O)[C@H](Cc1ccccc1)NC(=O)O[C@@H]1CC2CCO[C@@H]2C1 (stereo partly drawn) [Compound 226]
IC50 (fluorogenic substrate assay): > 2e+06 pM

O=C(N[C@@H](Cc1ccccc1)[C@H](O)CN1CCC/C=C\CCCCOc2ccccc2COC1=O)O[C@@H]1CC2CCO[C@@H]2C1 (stereo partly drawn) [Compound 227]
IC50 (fluorogenic substrate assay): 495000 pM | Ki (fluorogenic substrate assay): 154 nM

O=C(N[C@@H](Cc1ccccc1)[C@H](O)CN1CCCCCCCCCOc2ccccc2COC1=O)O[C@@H]1CC2CCO[C@@H]2C1 (stereo partly drawn) [Compound 228]
IC50 (fluorogenic substrate assay): 2.2e+06 pM | Ki (fluorogenic substrate assay): 638 nM

C=CCCCCN(C[C@@H](O)[C@H](Cc1ccccc1)NC(=O)O[C@H]1CO[C@H]2OCCC21)S(=O)(=O)c1cccc(OCC=C)c1 (stereo partly drawn) [Compound 229]
IC50 (fluorogenic substrate assay): 9100 pM | Ki (fluorogenic substrate assay): 2.1 nM

O=C(N[C@@H](Cc1ccccc1)[C@H](O)CN1CCCCCCCOc2cccc(c2)S1(=O)=O)O[C@H]1CO[C@H]2OCCC21 (stereo partly drawn) [Compound 231]
IC50 (fluorogenic substrate assay): 8600 pM | Ki (fluorogenic substrate assay): 2.7 nM

C=CCCCCN(C[C@@H](O)[C@H](Cc1ccccc1)NC(=O)O[C@H]1CO[C@H]2OCCC21)S(=O)(=O)c1cccc(OCCC=C)c1 (stereo partly drawn) [Compound 232]
IC50 (fluorogenic substrate assay): 5400 pM | Ki (fluorogenic substrate assay): 1.7 nM

O=C(N[C@@H](Cc1ccccc1)[C@H](O)CN1CCCC/C=C\CCOc2cccc(c2)S1(=O)=O)O[C@H]1CO[C@H]2OCCC21 (stereo partly drawn) [Compound 233]
IC50 (fluorogenic substrate assay): 8700 pM | Ki (fluorogenic substrate assay): 2.7 nM

O=C(N[C@@H](Cc1ccccc1)[C@H](O)CN1CCCCCCCCOc2cccc(c2)S1(=O)=O)O[C@H]1CO[C@H]2OCCC21 (stereo partly drawn) [Compound 234]
IC50 (fluorogenic substrate assay): 7300 pM | Ki (fluorogenic substrate assay): 2.3 nM

O=C(N[C@@H](Cc1ccccc1)[C@H](O)CN1CCCC/C=C\CCCCOc2cccc(c2)S1(=O)=O)O[C@@H]1CC2CCO[C@@H]2C1 (stereo partly drawn) [Compound 235]
IC50 (fluorogenic substrate assay): 9300 pM | Ki (fluorogenic substrate assay): 2.9 nM

O=C(N[C@@H](Cc1ccccc1)[C@H](O)CN1CCCCCCCCCCOc2cccc(c2)S1(=O)=O)O[C@@H]1CC2CCO[C@@H]2C1 (stereo partly drawn) [Compound 236]
IC50 (fluorogenic substrate assay): 11000 pM | Ki (fluorogenic substrate assay): 3.4 nM

C=CCCCCN(C[C@@H](O)[C@H](Cc1ccccc1)NC(=O)O[C@@H]1CC2CCO[C@@H]2C1)S(=O)(=O)c1cccc(C(O)CC=C)c1 (stereo partly drawn) [Compound 237]
IC50 (fluorogenic substrate assay): 10000 pM | Ki (fluorogenic substrate assay): 3.1 nM

O=C(N[C@@H](Cc1ccccc1)[C@H](O)CN1CCCCCCCC(O)c2cccc(c2)S1(=O)=O)O[C@@H]1CC2CCO[C@@H]2C1 (stereo partly drawn) [Compound 238]
IC50 (fluorogenic substrate assay): 4000 pM | Ki (fluorogenic substrate assay): 1.2 nM

O=C(N[C@@H](Cc1ccccc1)[C@H](O)CN1CCCC/C=C/CCCC(O)c2cccc(c2)S1(=O)=O)OCc1cccnc1 (stereo partly drawn) [Compound 239]
IC50 (fluorogenic substrate assay): 34000 pM | Ki (fluorogenic substrate assay): 11 nM

CC(C)CN(C[C@@H](O)[C@H](Cc1ccccc1)NC(=O)O[C@@H]1CCOC1)[C@H]1CCNC1=O [Compound 248]
Ki (fluorogenic substrate assay): 730 nM

CC(C)CN(C[C@@H](O)[C@H](Cc1ccccc1)NC(=O)O[C@H]1CO[C@H]2OCC[C@H]21)[C@H]1CCNC1=O [Compound 249]
Ki (fluorogenic substrate assay): 37 nM

CC(C)CN(C[C@@H](O)[C@H](Cc1ccccc1)NC(=O)O[C@H]1CO[C@H]2OCC[C@H]21)[C@@H]1C(=O)Nc2ccccc21 [Compound 250]
Ki (fluorogenic substrate assay): 1 nM

COc1ccc(S(=O)(=O)N(CC(C)C)C[C@@H](O)C(Cc2ccccc2)NC(=O)O[C@H]2CO[C@@H]3OCCC[C@@H]32)cc1 (stereo partly drawn) [Compound 253]
IC50 (fluorogenic substrate assay): 1000 pM

CC(C)CN(C[C@H](O)C(Cc1ccccc1)NC(=O)O[C@@H]1C[C@@H]2CCO[C@@H]2C1)S(=O)(=O)c1ccc(CO)cc1 (stereo partly drawn) [Compound 254]
IC50 (fluorogenic substrate assay): 1000 pM

CC(C)CN(C[C@@H](O)[C@H](Cc1ccccc1)NC(=O)O[C@@H]1CC2CCO[C@@H]2C1)S(=O)(=O)c1ccc(/C=N/O)cc1 (stereo partly drawn) [Compound 256]
IC50 (fluorogenic substrate assay): 1700 pM

CC(C)CN(C[C@@H](O)[C@H](Cc1ccccc1)NC(=O)O[C@@H]1CC2CCO[C@@H]2C1)S(=O)(=O)c1cccc(/C=N/O)c1 (stereo partly drawn) [Compound 257]
IC50 (fluorogenic substrate assay): 2900 pM

CC(C)CN(C[C@@H](O)[C@H](Cc1ccccc1)NC(=O)O[C@@H]1CC2CCO[C@@H]2C1)S(=O)(=O)c1ccc(O)c(O)c1 (stereo partly drawn) [Compound 258]
IC50 (fluorogenic substrate assay): 3900 pM

Cc1cc(S(=O)(=O)N(CC(C)C)C[C@@H](O)[C@H](Cc2ccccc2)NC(=O)O[C@@H]2CC3CCO[C@@H]3C2)ccc1CO (stereo partly drawn) [Compound 259]
IC50 (fluorogenic substrate assay): 2800 pM

CC(C)CN(C[C@@H](O)[C@H](Cc1ccccc1)NC(=O)O[C@@H]1CC2CCO[C@@H]2C1)S(=O)(=O)c1ccc(N)cc1 (stereo partly drawn) [Compound 261]
IC50 (fluorogenic substrate assay): 2200 pM

CC(C)CN(C[C@@H](O)[C@H](Cc1ccccc1)NC(=O)OC1CO[C@H]2OCC[C@@H]12)C1CC(C)(C)NC1=O (stereo partly drawn) [Compound 269]
IC50 (fluorogenic substrate assay): 3400 pM

CC(C)CN(C[C@@H](O)[C@H](Cc1ccccc1)NC(=O)OC1CO[C@H]2OCC[C@@H]12)C1CC2(CCCC2)NC1=O (stereo partly drawn) [Compound 270]
IC50 (fluorogenic substrate assay): 6400 pM

COc1ccc(S(=O)(=O)N(C[C@H]2CCC(=O)N2)C[C@@H](O)[C@H](Cc2ccccc2)NC(=O)OC(C)(C)C)cc1 [Compound 271, ((1S)-Benzyl-(2R)-hydroxy-3-[(4-methoxybenzene-sulfonyl)-(5-oxopyrrolidin-(2R)-ylmethyl)amino]-propyl)carbamic acid tert-butyl ester]
IC50 (fluorogenic substrate assay): 3000 pM

COc1ccc(S(=O)(=O)N(C[C@@H]2CCC(=O)N2)C[C@@H](O)[C@H](Cc2ccccc2)NC(=O)OC(C)(C)C)cc1 [Compound 272]
IC50 (fluorogenic substrate assay): 3420 pM

COc1ccc(S(=O)(=O)N(C[C@H]2CCC(=O)N2)C[C@@H](O)[C@H](Cc2ccccc2)NC(=O)OC2CO[C@H]3OCC[C@@H]23)cc1 (stereo partly drawn) [Compound 273]
IC50 [1]: 17 pM

O=C1CC[C@H](CN(C[C@@H](O)[C@H](Cc2ccccc2)NC(=O)OC2CO[C@H]3OCC[C@@H]23)S(=O)(=O)c2ccc([N+](=O)[O-])cc2)N1 (stereo partly drawn) [Compound 274]
IC50 (fluorogenic substrate assay): 100 pM

O=C1CC[C@@H](CN(C[C@@H](O)[C@H](Cc2ccccc2)NC(=O)OC2CO[C@H]3OCC[C@@H]23)S(=O)(=O)c2ccc([N+](=O)[O-])cc2)N1 (stereo partly drawn) [Compound 275]
IC50 (fluorogenic substrate assay): 370 pM

Nc1ccc(S(=O)(=O)N(C[C@H]2CCC(=O)N2)C[C@@H](O)[C@H](Cc2ccccc2)NC(=O)OC2CO[C@H]3OCC[C@@H]23)cc1 (stereo partly drawn) [Compound 276]
IC50 [1]: 20 pM

COc1ccc(S(=O)(=O)N(C[C@H]2CCC(=O)N2)C[C@@H](O)[C@H](Cc2ccccc2)NC(=O)OC2CC[C@H]3OCC[C@@H]23)cc1 (stereo partly drawn) [Compound 277]
IC50 (fluorogenic substrate assay): 100 pM

COc1ccc(S(=O)(=O)N(C[C@@H]2CCC(=O)N2)C[C@@H](O)[C@H](Cc2ccccc2)NC(=O)OC2CC[C@H]3OCC[C@@H]23)cc1 (stereo partly drawn) [Compound 278]
IC50 (fluorogenic substrate assay): 160 pM

O=C1CC[C@H](CN(C[C@@H](O)[C@H](Cc2ccccc2)NC(=O)OC2CC[C@H]3OCC[C@@H]23)S(=O)(=O)c2ccc([N+](=O)[O-])cc2)N1 (stereo partly drawn) [Compound 279]
IC50 (fluorogenic substrate assay): 340 pM

Nc1ccc(S(=O)(=O)N(C[C@H]2CCC(=O)N2)C[C@@H](O)[C@H](Cc2ccccc2)NC(=O)OC2CC[C@H]3OCC[C@@H]23)cc1 (stereo partly drawn) [Compound 281]
IC50 [1]: 26 pM
